smiles,measurement,value
Cc1cc(C(F)(F)F)nn1CC(=O)N1CCN(c2nc(C3=NOC(c4c(F)cccc4F)C3)cs2)CC1C(=O)O (stereo not shown),melting point,178 to 185 °C

# — US20160007606A1, “MICROBIOCIDAL PYRAZOLE DERIVATIVES” (SYNGENTA PARTICIPATIONS AG, priority 2012, published 2016)
